Test results reported in patent US10980776B2, “Synergistic pharmaceutical combination for the treatment of squamous cell carcinoma of head and neck” (Piramal Enterprises Limited, priority 2011, dated 2021).

Experiments:
[1] = system: FADU cells
[2] = system: FADU cells; assay: CCK-8 cytotoxicity assay, determination of inhibitory concentrations in FADU cells; format: cell-based, human; conditions: 72 hr
Description: (§1) Logarithmically growing cells were plated at a density of 3×10^3 cells/well and allowed to recover overnight. […] After 72 hours, cell toxicity was determined by CCK-8 (Cell Counting Kit-8) reagent (Dojindo Molecular Technologies, Japan); WST-8 (2-(2-methoxy-4-nitrophenyl)-3-(4-nitrophenyl)-5-(2, 4-disulfophenyl)]-2H-tetrazolium, monosodium salt) assay. In accordance with the manufacturer's instructions, 5 μl/well CCK-8 reagent was added and plates were incubated for 2 hours. The toxicity was determined by measuring the absorbance on Tecan Sapphire multi-fluorescence micro-plate reader (Tecan, Germany, GmbH) at a wavelength of 450 nm corrected to 650 nm and normalized to controls.
(§2) CCK-8 allows convenient assays using Dojindo's tetrazolium salt, WST [8[(2-(2-methoxy-4-nitrophenyl)-3-(4-nitrophenyl)-5-(2,4-disulfophenyl)-2H-tetrazolium, monosodium salt], which produces a water-soluble formazan dye upon bioreduction in the presence of an electron carrier, 1-Methoxy PMS. CCK-8 solution is added directly to the cells; no pre-mixing of components is required. CCK-8 is a sensitive nonradioactive colorimetric assay for determining the number of viable cells in cell proliferation and cytotoxicity assays. WST-8 is bio-reduced by cellular dehydrogenases to an orange formazan product that is soluble in tissue culture medium. The amount of formazan produced is directly proportional to the number of living cells. The detection sensitivity of cell proliferation assays using WST-8 is higher than assays using the other tetrazolium salts such as MIT, XTT, MTS or WST-1. Optical Density was determined at measurement wavelength of 450 nm and reference wave length of 630 nm.
(§3) The cells were seeded at a density of 3000 cells/well, in a 200 μL in tissue culture grade 96 well plate and were allowed to recover for 24 hrs in a humidified 5%±0.2 CO2 incubator at 37° C.±0.5° C. […] The final DMSO concentration was 0.5% in wells. Plates were incubated for 48 hrs in humidified 5%±0.2 CO2 incubator at 37±0.5° C. After 48 hrs the plates were removed from CO2 incubator and 5 μL of Cell counting Kit (CCK-8) per well was added. The same plate was kept at 37° C. for 3 hrs, and allowed to come to room temperature. The absorbance at a wavelength of 450 nm was read on Tecan safire reader. The percent cytotoxicity was calculated using the following formula.

[3] = system: FaDu (hypopharyngeal squamous cell carcinoma) xenografts; assay: In vivo efficacy in human head and neck cancer FaDu xenografts; conditions: FaDu xenografts in SCID mice; end of treatment, after 18 days; Compound A 35 mpk i.p. once daily 5 days a week; cisplatin 1 mpk i.p. once a week; cetuximab 2.5 mpk twice a week; 3 weeks
Description: In-vivo studies were carried out according to the method described in Clinical cancer search, 2003, 9, 6052-6061; the disclosure of which is incorporated herein by reference for the teaching of the assay.
The in-vivo studies were carried out using Xenograft models in Severe combined immune deficiency (SCID) mice strain—CbySmn.CB17-Prkdcscid/J, by the method described below. The statistically significant number of mice per group (n=6) was chosen in order to be able to statistically evaluate the study data.
FaDu cells were grown in MEM (minimum essential media) medium containing non-essential amino acids and 10% fetal calf serum in 5% CO2 incubator at 37° C. Cells were pelleted by centrifugation at 1000 rpm for 10 minutes. Cells were resuspended in pre-chilled mixture of saline to get a count of 6×10^6 cells per mL; 0.2 ml of this cell suspension was kept on ice and injected by subcutaneous (s.c.) route in SCID mice. Mice were observed every alternate day for palpable tumor mass. Once the tumor size reached a size of 3-5 mm in diameter, animals were randomized into respective groups of treatment and untreated controls. The treatment groups comprised of 5 groups viz. […] The control group received no treatment.
Measurement of tumor was done every 2-3 days apart. Growth inhibition percentage (GI %) was calculated at the end of experiment.

[4] = system: SCC-25 cells; assay: Combination studies (single and sequential combination dosing), % cytotoxicity in SCC-25 cells; conditions: SCC-25; single agent at IC70 (compound A 4.1 μM)
Description: as §1, §2
Sorafenib in the following dose of final concentration 0.18 μM and compound A in the following doses of final concentration 0.1 μM, 0.4 μM and 4.1 μM were analyzed in single dose and in all possible combinations of the dose range for the two anticancer agents mentioned above. The sequence of treatment is as follows; the SCC-25 cells were treated with sorafenib for 0 to 24 hrs. At the end of 24 hrs the cells were washed two times with plain MEM (minimum essential media) medium. Fresh MEM with 10% serum (200 μL/well) was added, followed by treatment with compound A from 24 hrs to 96 hrs.
(§4) Sorafenib in the following dose of final concentration 0.18 μM and compound B in the following doses of final concentration 0.2 μM, 1.1 μM and 4.8 μM were analyzed in single dose and in all possible combinations of the dose range for the two anticancer agents mentioned above. The sequence of treatment is as follows; the SCC-25 cells were treated with sorafenib for 0 to 24 hrs. At the end of 24 hrs the cells were washed two times with plain MEM medium. Fresh MEM with 10% serum (200 μL/well) was added, followed by treatment with compound B from 24 hrs to 96 hrs.
Lapatinib in the following dose of final concentration 0.2 μM and compound A in the following doses of final concentration 0.2 μM, 0.5 μM and 3.3 μM were analyzed in single dose and in all possible combinations of the dose range for the two drugs mentioned above. The sequence of treatment is as follows; the SCC-25 cells were treated with lapatinib for 0 to 24 hrs. At the end of 24 hrs the cells were washed two times with plain MEM medium. Fresh MEM with 10% serum (200 μL/well) was added, followed by treatment with compound A from 24 hrs to 96 hrs.
(§5) Lapatinib in the following dose of final concentration 0.2 μM and compound B in the following doses of final concentration 0.2 μM, 1.1 μM and 4.8 μM were analyzed in single dose and in all possible combinations of the dose range for the two drugs mentioned above. The sequence of treatment is as follows; the SCC-25 cells were treated with lapatinib for 0 to 24 hrs. At the end of 24 hrs the cells were washed two times with plain MEM medium. Fresh MEM with 10% serum (200 μL/well) was added, followed by treatment with compound A from 24 hrs to 96 hrs.

[5] = system: Detroit-562 cells; assay: Combination studies (single and sequential combination dosing), % cytotoxicity in Detroit-562 cells; conditions: Detroit-562
Description: as §1, §2
as §4, with “1.8” for “0.18”, “A” for “B”, “0.5” for “0.2”, “1.3” for “1.1”, “12.1” for “4.8”, “Detroit-562” for “the SCC-25”
as §4, with “1.8” for “0.18”, “2.7” for “0.2”, “14.1” for “1.1”, “25.2” for “4.8”, “Detroit-562” for “SCC-25”
Lapatinib in the following dose of final concentration 1 μM and compound A in the following doses of final concentration 0.5 μM, 1.3 μM and 12.1 μM were analyzed in single dose and in all possible combinations of the dose range for the two anticancer agents mentioned above. The sequence of treatment is as follows; the Detroit-562 cells were treated with lapatinib for 0 to 24 hrs. At the end of 24 hrs the cells were washed two times with plain MEM medium. Fresh MEM with 10% serum (200 μL/well) was added, followed by treatment with compound A from 24 hrs to 96 hrs.
as §5, with “final concentration 1.0 μM and” for “final concentration 0.2 μM and”, “final concentration 2.7 μM, 14.1” for “final concentration 0.2 μM, 1.1”, “2.7 μM, 14.1 μM and” for “0.2 μM, 1.1 μM and”, “μM and 25.2 μM were” for “μM and 4.8 μM were”, “follows; the Detroit-562 cells were” for “follows; the SCC-25 cells were”

[6] = system: SCC-25 cells; assay: CCK-8 cytotoxicity assay, determination of inhibitory concentrations in SCC-25 cells; format: cell-based; conditions: SCC-25 cells, 72 hr
Description: as §1, §2, §3

[7] = system: Detroit-562 cells; assay: CCK-8 cytotoxicity assay, determination of inhibitory concentrations in Detroit-562 cells; format: cell-based; conditions: 72 hr
Description: as §1, §2, §3

In the case of `CN1CC[C@@H](c2c(O)cc(O)c3c(=O)cc(-c4ccccc4Cl)oc23)[C@@H]1CO.Cl` (relative stereo) [Compound A, (+)-trans-2-(2-Chloro-phenyl)-5,7-dihydroxy-8-(2-hydroxy-methyl-1-methyl-pyrrolidin-3-yl)-chromen-4-one hydrochloride], the cytotoxicity [1] is reported as 18%, the IC10 [2] is reported as 80 nM and the IC30 [2] is reported as 200 nM. It also gave an IC50 [2] of 1300 nM, an IC70 [2] of 8300 nM and an IC90 [2] of 28300 nM. The “Tumor Growth inhibition (%)” value [3] was 11%, the “% Cytotoxicity” value [4] was 29% and the “% Cytotoxicity” value ([5]; single agent at IC50 (compound A 1.3 μM), lapatinib study) was 22%. For the same molecule, the “% Cytotoxicity” value ([5]; single agent at IC70, cisplatin/5-FU/compound A study) was 18.02%, the “% Cytotoxicity” value ([5]; single agent at IC70, erlotinib study) was 34.32% and the IC30 [6] was 100 nM. For the same molecule, the IC70 [6] was 4100 nM, the IC90 [6] was 33300 nM and the IC50 ([6]; read-out: IC50) was 400 nM. The IC10 [7] was 100 nM, the IC30 [7] was 500 nM and the IC50 [7] was 1300 nM. It also gave an IC70 [7] of 12100 nM and an IC90 [7] of 26300 nM.
